Results: ChEMBL document CHEMBL4359822, “Design, synthesis of 4,5-diazafluorene derivatives and their anticancer activity via targeting telomeric DNA G-quadruplex” (Eur J Med Chem, 2019)
The source made the active and inactive calls.

Tests used:
Assay type in all cases: functional, cell-based
[1] = tested on: HepG2; assay: Antiproliferative activity against human HepG2 cells at 10 uM incubated for 36 hrs by CCK8 assay
[2] = tested on: A549; assay: Antiproliferative activity against human A549 cells at 10 uM incubated for 36 hrs by CCK8 assay
[3] = tested on: MCF7; assay: Antiproliferative activity against human MCF7 cells at 10 uM incubated for 36 hrs by CCK8 assay
[4] = tested on: AGS; assay: Antiproliferative activity against human AGS cells at 10 uM incubated for 36 hrs by CCK8 assay

Measured: growth inhibition (GI)

Fc1ccc(-c2n[nH]cc2C=C2c3cccnc3-c3ncccc32)cc1
active: all assays above

O=[N+]([O-])c1ccc(-n2cc(C=C3c4cccnc4-c4ncccc43)c(-c3ccc(Cl)cc3)n2)c([N+](=O)[O-])c1
active: all assays above

O=C1C(=C2c3cccnc3-c3ncccc32)SC(=S)N1Cc1nnc(-c2ccc(Cl)cc2)o1
active: all assays above

Clc1ccc(-c2nn(Cc3ccccc3)cc2C=C2c3cccnc3-c3ncccc32)cc1
active: all assays above

Cc1ccc(-c2nnc(CN3C(=O)C(=C4c5cccnc5-c5ncccc54)SC3=S)o2)cc1
active: all assays above

O=C(O)CN1C(=O)C(=C2c3cccnc3-c3ncccc32)SC1=S
active: all assays above

Clc1ccc(-c2n[nH]cc2C=C2c3cccnc3-c3ncccc32)cc1
active: all assays above

O=[N+]([O-])c1ccc(-n2cc(C=C3c4cccnc4-c4ncccc43)c(-c3ccc(Br)cc3)n2)c([N+](=O)[O-])c1
active: all assays above

Cc1ccc(-c2nn(Cc3ccccc3)cc2C=C2c3cccnc3-c3ncccc32)cc1
active: all assays above

Brc1ccc(-c2n[nH]cc2C=C2c3cccnc3-c3ncccc32)cc1
active: all assays above

Fc1ccc(-c2nn(Cc3ccccc3)cc2C=C2c3cccnc3-c3ncccc32)cc1
active: all assays above

O=[N+]([O-])c1ccc(-n2cc(C=C3c4cccnc4-c4ncccc43)c(-c3ccc(F)cc3)n2)c([N+](=O)[O-])c1
active: all assays above

Brc1ccc(-c2nn(Cc3ccccc3)cc2C=C2c3cccnc3-c3ncccc32)cc1
active: all assays above

Cc1ccc(-c2n[nH]cc2C=C2c3cccnc3-c3ncccc32)cc1
active: all assays above

Cc1ccc(-c2nn(-c3ccc([N+](=O)[O-])cc3[N+](=O)[O-])cc2C=C2c3cccnc3-c3ncccc32)cc1
active: all assays above
